Patent US20240150293A1, “SPIROCYCLOHEXANE DERIVATIVES, PHARMACEUTICAL COMPOSITIONS CONTAINING THEM AND THEIR USES AS ANTI-APOPTOTIC INHIBITORS” (LES LABORATOIRES SERVIER, priority 2021, published 2024)
pKi: −log10 of the molar value.

Target: Mcl-1 protein (UniProtKB Q07820) (Homo sapiens (Human), UniProt Q07820)
Test: Inhibition of Mcl-1 by the fluorescence polarisation assay (Example A, Method A)
Format: binding
Conditions: fluorescence polarization assay
How it was run: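 Protein (5 nM) and fluorescein-tagged peptide tracer (1 nM) incubated with 11-point compound series for 2 h at room temperature in HEPES/NaCl/Tween 20 buffer, pH 7.4, 5% DMSO. Displacement read as decrease in polarisation; IC50 fitted by 4-parameter logistic, converted to Ki (cKi or eKi).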

Sequence of Mcl-1 protein (Q07820 whole entry): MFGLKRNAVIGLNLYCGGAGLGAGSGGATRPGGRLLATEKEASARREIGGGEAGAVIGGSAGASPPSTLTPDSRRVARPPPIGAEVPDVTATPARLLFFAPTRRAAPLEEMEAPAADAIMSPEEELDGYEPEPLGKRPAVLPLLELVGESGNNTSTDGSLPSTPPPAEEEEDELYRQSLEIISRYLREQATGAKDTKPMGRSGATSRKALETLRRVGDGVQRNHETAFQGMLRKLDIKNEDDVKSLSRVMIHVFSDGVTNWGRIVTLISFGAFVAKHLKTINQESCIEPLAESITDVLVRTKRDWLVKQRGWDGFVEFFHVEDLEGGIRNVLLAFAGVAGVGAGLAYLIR

| SMILES | pKi |
| --- | --- |
| COc1ccc(C2=Cc3ccccc3[C@]23CC[C@@](Nc2cccc(Cl)c2)(C(=O)O)CC3)cc1Cl [Example 227, (1s,4s)-4-(3-chloroanilino)-2′-(3-chloro-4-methoxyphenyl)spiro[cyclohexane-1,1′-indene]-4-carboxylic acid] | 5.92 |
| O=C(O)[C@]1(Nc2cccc(Cl)c2)CC[C@@]2(CC1)c1ccccc1CC2CCCOc1ccccc1 (stereo partly drawn) [Example 423, (1r,4r)-4-(3-chloroanilino)-2′-(3-phenoxypropyl)-2′,3′-dihydrospiro[cyclohexane-1,1′-indene]-4-carboxylic acid] | 6.65 |
| Cc1cc(C2=Cc3ccccc3[C@]23CC[C@@](Nc2cccc(Cl)c2)(C(=O)O)CC3)cs1 [Example 318, (1s,4s)-4-(3-chloroanilino)-2′-(5-methylthiophen-3-yl)spiro[cyclohexane-1,1′-indene]-4-carboxylic acid] | 5.72 |
| CC(C)c1cncnc1OCCCC1Cc2ccccc2[C@]12CC[C@@](Nc1cccc(Cl)c1)(C(=O)O)CC2 (mixture of isomers) [Example 461, (1r,4r)-4-(3-chloroanilino)-2′-(3-{[5-(propan-2-yl)pyrimidin-4-yl]oxy}propyl)-2′,3′-dihydrospiro[cyclohexane-1,1′-indene]-4-carboxylic acid] | 6.49 |
| O=C(O)[C@]1(Nc2cccc(Cl)c2)CC[C@@]2(CC1)c1ccccc1CC2c1ccc(Oc2ccncc2)cc1 (single isomer, unassigned) [Example 365, (1r,4r)-4-(3-chloroanilino)-2′-{4-[(pyridin-4-yl)oxy]phenyl}-2′,3′-dihydrospiro[cyclohexane-1,1′-indene]-4-carboxylic acid] | 5.51 |
| C#Cc1ccc2c(c1)[C@]1(CC[C@](Nc3cccc(Br)c3)(C(=O)O)CC1)C(=O)N2C [Example 18, (1r,4r)-4-(3-bromoanilino)-5′-ethynyl-1′-methyl-2′-oxo-1′,2′-dihydrospiro[cyclohexane-1,3′-indole]-4-carboxylic acid] | 4.50 |
| O=C(O)[C@]1(Nc2cccc(Cl)c2)CC[C@]2(CC1)C(COCCc1ccc(F)cc1)=Cc1ccccc12 [Example 413, (1s,4s)-4-(3-chloroanilino)-2′-{[2-(4-fluorophenyl)ethoxy]methyl}spiro[cyclohexane-1,1′-indene]-4-carboxylic acid] | 6.15 |
| CN(CCc1ccncc1)C(=O)C1Cc2ccccc2[C@]12CC[C@@](Nc1cccc(Cl)c1)(C(=O)O)CC2 (single isomer, unassigned) [Example 404, (1r,4r)-4-(3-chloroanilino)-2′-{methyl[2-(pyridin-4-yl)ethyl]carbamoyl}-2′,3′-dihydrospiro[cyclohexane-1,1′-indene]-4-carboxylic acid] | 5.11 |
| CN1c2ccc(/C=C/Cc3ccccc3)cc2[C@]2(CC[C@](Nc3cccc(Br)c3)(C(=O)O)CC2)C1=O [Example 19, (1r,4r)-4-(3-bromoanilino)-1′-methyl-2′-oxo-5′-[(1E)-3-phenylprop-1-en-1-yl]-1′,2′-dihydrospiro[cyclohexane-1,3′-indole]-4-carboxylic acid] | 4.68 |
| O=C(O)[C@]1(Nc2ccccc2)CC[C@]2(CC1)C(CCCOc1ccnc3ccsc13)=Cc1ccccc12 [Example 455, (1r,4r)-4-anilino-2′-{3-[(thieno[3,2-b]pyridin-7-yl)oxy]propyl}spiro[cyclohexane-1,1′-indene]-4-carboxylic acid] | 5.99 |
| O=C(O)[C@]1(Nc2cccc(Cl)c2)CC[C@@]2(CC1)c1ccccc1[C@@H]1C[C@@H]12 (single isomer, unassigned) [Example 108, (1r,1′aR*,4r,6′aS*)-4-(3-chloroanilino)-1′a,6′a-dihydro-1′H-spiro[cyclohexane-1,6′-cyclopropa[a]indene]-4-carboxylic acid] | 5.24 |
| O=C(O)C1(Nc2cccc(Br)c2)CCC2(CC1)c1ccccc1CC2CCCc1ccccc1 (single isomer, unassigned) [Example 150, (1r,4r)-4-(3-bromoanilino)-2′-(3-phenylpropyl)-2′,3′-dihydrospiro[cyclohexane-1,1′-indene]-4-carboxylic acid] | 6.65 |
| O=C(O)[C@]1(Nc2cccc(Cl)c2)CC[C@@]2(CC1)c1ccccc1CC2[C@H]1C[C@@H]1COc1cccnc1 (single isomer, unassigned) [Example 113, (1r,4r)-4-(3-chloroanilino)-2′-[(1R*,2S*)-2-{[(pyridin-3-yl)oxy]methyl}cyclopropyl]-2′,3′-dihydrospiro[cyclohexane-1,1′-indene]-4-carboxylic acid] | 4.65 |
| O=C(O)[C@]1(Nc2cccc(Cl)c2)CC[C@]2(CC1)C(c1cccc(OCC3CC3)c1)=Cc1ccccc12 [Example 339, (1s,4s)-4-(3-chloroanilino)-2′-[3-(cyclopropylmethoxy)phenyl]spiro[cyclohexane-1,1′-indene]-4-carboxylic acid] | 6.81 |
| O=C(O)C1(Nc2cccc(Cl)c2)CCC2(CC1)c1ccccc1CC2CCCOc1ncnc2c1CCCC2 (stereo not drawn) [Example 460, (1r,4r)-4-(3-chloroanilino)-2′-{3-[(5,6,7,8-tetrahydroquinazolin-4-yl)oxy]propyl}-2′,3′-dihydrospiro[cyclohexane-1,1′-indene]-4-carboxylic acid] | 6.80 |
| O=C(O)[C@]1(Nc2cccc(Cl)c2)CC[C@@]2(CC1)c1ccccc1C[C@@H]2c1cccc(Oc2ccccc2)c1 [Example 324, (1r,2′R,4R)-4-(3-chloroanilino)-2′-(3-phenoxyphenyl)-2′,3′-dihydrospiro[cyclohexane-1,1′-indene]-4-carboxylic acid] | 5.07 |
| O=C(O)[C@]1(Nc2cccc(Br)c2)CC[C@@]2(CC1)C(CCCc1ccccc1)=Cc1ccccc12 [Example 149, (1s,4s)-4-(3-bromoanilino)-2′-(3-phenylpropyl)spiro[cyclohexane-1,1′-indene]-4-carboxylic acid] | 4.20 |
| C[C@@H](COc1ccccc1)CC1Cc2ccccc2[C@]12CC[C@@](Nc1cccc(Cl)c1)(C(=O)O)CC2 (stereo partly drawn) [Example 567, (1r,4R)-4-(3-chloroanilino)-2′-[(2R)-2-methyl-3-phenoxypropyl]-2′,3′-dihydrospiro[cyclohexane-1,1′-indene]-4-carboxylic acid] | 6.81 |
| O=C(O)[C@]1(Nc2cccc(Cl)c2)CC[C@@]2(CC1)c1ccccc1CC2c1ccc(OCc2ccccc2)cc1 (single isomer, unassigned) [Example 353, (1r,4r)-2′-[4-(benzyloxy)phenyl]-4-(3-chloroanilino)-2′,3′-dihydrospiro[cyclohexane-1,1′-indene]-4-carboxylic acid] | 5.06 |
| O=C(O)[C@]1(Nc2cccc(Cl)c2)CC[C@@]2(CC1)c1ccccc1CC2CCCN1CCOCC1 (stereo partly drawn) [Example 196, (1r,4r)-4-(3-chloroanilino)-2′-[3-(morpholin-4-yl)propyl]-2′,3′-dihydrospiro[cyclohexane-1,1′-indene]-4-carboxylic acid] | 5.02 |
| COc1ccc(C)c(C2Cc3ccccc3[C@]23CC[C@@](Nc2cccc(Cl)c2)(C(=O)O)CC3)c1 (single isomer, unassigned) [Example 270, (1r,4r)-4-(3-chloroanilino)-2′-(5-methoxy-2-methylphenyl)-2′,3′-dihydrospiro[cyclohexane-1,1′-indene]-4-carboxylic acid] | 5.40 |
| CN(Cc1ccccc1)C(=O)C1=Cc2ccccc2[C@]12CC[C@@](Nc1cccc(Cl)c1)(C(=O)O)CC2 [Example 181, (1s,4s)-2′-[benzyl(methyl)carbamoyl]-4-(3-chloroanilino)spiro[cyclohexane-1,1′-indene]-4-carboxylic acid] | 4.94 |
| COc1ccc([C@H]2Cc3ccccc3[C@]23CC[C@@](Nc2cccc(Cl)c2)(C(=O)O)CC3)cc1 [Example 241, (1r,2′R,4R)-4-(3-chloroanilino)-2′-(4-methoxyphenyl)-2′,3′-dihydrospiro[cyclohexane-1,1′-indene]-4-carboxylic acid] | 5.36 |
| CC1=Cc2cc(Cl)ccc2C12CCC(Nc1cccc(Br)c1)(C(=O)O)CC2 (stereo not drawn) [Example 124, 4-(3-bromoanilino)-5′-chloro-2′-methylspiro[cyclohexane-1,1′-indene]-4-carboxylic acid] | 5.89 |
| O=C(O)C1(Nc2cccc(Br)c2)CCC2(CC1)c1ccccc1-c1ccccc12 [Example 117, 4-[(3-bromophenyl)amino]spiro[cyclohexane-1,9′-fluorene]-4-carboxylic acid] | 5.24 |
| O=C(O)[C@]1(Nc2cccc(Cl)c2)CC[C@]2(CC1)C(c1ccc(Oc3cccnc3)cc1)=Cc1ccccc12 [Example 351, (1s,4s)-4-(3-chloroanilino)-2′-{4-[(pyridin-3-yl)oxy]phenyl}spiro[cyclohexane-1,1′-indene]-4-carboxylic acid] | 6.26 |
| CN1c2ccc(I)cc2[C@]2(CC[C@](Nc3cccc(Br)c3)(C(=O)O)CC2)C1=O [Example 5, (1r,4r)-4-(3-bromoanilino)-5′-iodo-1′-methyl-2′-oxo-1′,2′-dihydrospiro[cyclohexane-1,3′-indole]-4-carboxylic acid] | 4.66 |
| C[C@@H](COc1ccnc(N)c1)C[C@H]1Cc2ccccc2[C@]12CC[C@@](Nc1cccc(Cl)c1)(C(=O)O)CC2 [Example 583, (1r,2′S,4S)-2′-{(2R)-3-[(2-aminopyridin-4-yl)oxy]-2-methylpropyl}-4-(3-chloroanilino)-2′,3′-dihydrospiro[cclohexane-1,1′-indene]-4-carboxylic acid] | 6.72 |
| O=C(O)[C@]1(Nc2cccc(Cl)c2)CC[C@@]2(CC1)c1ccccc1CC2CCCOc1ccnc2c1CCCC2F (stereo partly drawn) [Example 473, (1r,4r)-4-(3-chloroanilino)-2′-{3-[(8-fluoro-5,6,7,8-tetrahydroquinolin-4-yl)oxy]propyl}-2′,3′-dihydrospiro[cyclohexane-1,1′-indene]-4-carboxylic acid] | 7.09 |
| O=C(O)[C@]1(Nc2cccc(Cl)c2)CC[C@@]2(CC1)c1ccccc1CC2c1ccc(OCc2ccncc2)cc1 (single isomer, unassigned) [Example 369, (1r,4r)-4-(3-chloroanilino)-2′-{4-[(pyridin-4-yl)methoxy]phenyl}-2′,3′-dihydrospiro[cyclohexane-1,1′-indene]-4-carboxylic acid] | 5.72 |
